Assay results published in patent US20060199241A1, “Electrochemically and optically monitoring cleaving enzyme activity” (priority 2005, published 2006).

Test system: APO-GDH
Assay: Homogeneous optical and electrochemical assay with GDH and PQQ
Type: biochemical
Conditions: APO-GDH 1 μM, 2 mM CaCl2, 40 mM glucose, 50 μM PMS, redox indicator (DCIP, resazurin or thionine)
Method: Homogeneous Optical and Electrochemical Assay for DNA with GDH and PQQ (See FIG. 8) The PQQ solutions (variable concentrations) included APO-GDH (1 μM), 2 mM CaCl2, and 40 mM Glucose. 50 μM PMS and a redox indicator (0.1-0.2 mM DCIP, 0.025 mM resazurin, or 0.05 mM thionine) were also added. PQQ at 0.1 nM was detectable.

SMILES: O=C(O)c1cc(C(=O)O)c2c(n1)C(=O)C(=O)c1cc(C(=O)O)[nH]c1-2 [PQQ, pyrroloquinoline quinone]
- PQQ concentration detectable (GDH enzyme activity): 0.1 nM
